Source: patent US6602982B1, “Process for the preparation of regular glycopeptides” (Hokkaido Electric Power Company, Incorporated, priority 1998, dated 2003)

Experimental: Aqueous solutions of the polymer of Example 5 having various concentrations were prepared, and the freezing point thereof was measured. The freezing point depression was measured with a light microscope with a temperature controller. Firstly, in order to remove any error in the measurement of freezing point due to supercooling, the whole system was previously frozen at −20° C., and then was carefully returned to 0° C. with attention not to dissolve completely the ice nucleus. Then, the system is gradually cooled with observing growth of ice crystal. The freezing point was deemed to be a point at which the growth of ice crystal was stopped and the whole system was frozen.

Olymer of L-Alanine-(β-D-galactopyranosyl)-(1→3)-(2-acetamido-2-deoxy-1-α-D-galactopyranosyl)-L-threonine-L-alanine [Example 5]
growth of ice crystal (aqueous solution, gradual cooling while observing ice crystal growth): inhibited the growth of ice crystal | freezing point depression activity (aqueous solutions of various concentrations, compared with literature data for natural origin AFGP, FIG. 1): almost the same freezing point depression activity as that of the natural origin AFGP
